In patent US20130336988A1, “METHODS FOR TREATING EARLY STAGE OR MILD NEUROLOGICAL DISORDERS” (NEW YORK UNIVERSITY, priority 2010, published 2013):

System: E15 DIV3 mouse hippocampal neurons
Test: proNT-induced growth cone collapse in cultured hippocampal neurons (live imaging and immunofluorescence)
Assay type: cell-based
Conditions: for growth cone collapse: p75NTR-positive cells, 20 min exposure, 10 ng/ml proNGF, 10 ng/ml proBDNF with K252a, 5 ng/ml NGF
Method: To assay which pathways are involved in filopodial collapse, 5-10 ng/ml proNGF, 10 ng/ml proBDNF, 25-50 ng/ml BDNF (Peprotech) or 25-100 ng/ml NGF (Harlan) was added to E15 primary hippocampal neurons for 20 min before fixation. In some cases, cells were pretreated with 100 nM K-252a (Calbiochem) for 20 min, 100 nM Gö6976 (Calbiochem) for 1 hour, 5 μM EHT1864 (Sigma) for 30 min or 100 nM ITX3 (ChemBridge Corporation, cat. no. 6007262) for 45 min. To block SorCS2, cells were incubated with 20 μg/ml anti-SorCS2 or control IgG for 20 min on ice before proNGF addition at 37° C.
DIV3 hippocampal neurons were fixed in 4% paraformaldehyde/20% sucrose for 10 min. The fixative was quenched with 50 mM NH4Cl in PBS for 5 min and cells were permeabilized with 0.1% TritonX-100 in PBS for 2 min. Alternatively, cells were fixed with ice-cold methanol for 5 min. Coverslips were blocked with 10% normal donkey serum, 2% bovine serum albumin and 0.25% fish skin gelatin in Tris-buffered saline for 30 min, incubated with primary antibodies diluted in blocking solution for 30 min, washed three times with Tris-buffered saline/0.25% fish skin gelatin, incubated with secondary antibodies mixed with Hoechst in blocking buffer for additional 30 min, washed and mounted using Mowio1488. Cells were imaged using a LSM510 laser-scanning confocal microscope equipped with a 40× Plan Neofluor NA1.3 DIC oil-immersion objective (Carl Zeiss Microimaging). Images were processed using LSM510 software (Zeiss) and ImageJ (NIH).
Cells were plated on gridded glass bottom dishes (MatTek Corporation) and imaged at DIV3 in phenol red-free Neurobasal medium (Invitrogen) supplemented with 30 mM HEPES-NaOH, pH7.4 using an Olympus IX71 inverted microscope driven by IPLab software (BD Biosciences) and equipped with a 60× PlanApoN objective (NA 1.42), a Hamamatsu EM-CCD camera and a heated stage maintained at 37° C., or driven by softWoRX software (version 3.7.1, DeltaVision), and equipped with a CoolSnap HQ2 camera (Photometrics) and an environmental chamber maintained at 37° C. Images were taken every 15 seconds. After live imaging cells were fixed, counterstained for p75, located by grid number and examined for p75 expression. All movies were exported and processed using IPLab (BD Biosciences), softWoRX (version 3.7.1, DeltaVision) and ImageJ (NIH) software. Filopodia length and speed were both analyzed using ImageJ (NIH) software. For this, two times ten consecutive frames, spaced 5-10 min apart, were analyzed before and again after treatment. In the length analysis, a line was drawn along an individual filopodium and measured at every time point, and the measurements were averaged before and after treatment. For the speed analysis, the filopodial tip was tracked using the ImageJ Manual Tracking plugin. Up to four individual filopodia were analyzed per movie, and a minimum of four movies taken from separate experiments were analyzed per condition.
Primary hippocampal and cortical neurons were isolated from E15 C57BL/6 mouse embryos as previously described (PEREIRA, D. B. et al., Journal of Neuroscience 27:4859-4869 (2007)). Briefly, neurons were dissociated by incubation with 0.05% trypsin at 37° C. for 8 min followed by trituration with fire-polished glass Pasteur pipettes. Cells were plated on poly-D-lysine coated dishes and grown in Neurobasal medium containing B27, 0.5 mM glutamine (all Invitrogen) and 10 μM 5-fluorodeoxyuridine. Hippocampal neurons were transfected at DIV2 using Lipofectamine2000 (Invitrogen). For coverslips in a 24-well plate, 0.5 μg plasmid were mixed with 0.5 μl Lipofectamine2000, and for glass bottom dishes, 1.5 μg plasmid were mixed with 1.5 μl Lipofectamine2000. The complexes were added to the cells for 30-45 min, and then neurons were placed back into preconditioned media until analysis the following day. […]

Molecule	growth cone collapse in neurons from p75NTR-/- mice (live imaging of LifeAct-RFP transfected neurons from p75 null mice (not shown))	localisation of endogenous Trio (p75NTR-positive E15 DIV3 hippocampal neurons, immunostaining)	growth cone collapse
proNGF: proneurotrophin precursor of nerve growth factor, produced in Sf9 cells and purified	growth cone collapse was never observed	redistribution of Trio along the neuritis	comparable in inducing growth cone collapse
proBDNF: murine proBDNF collected from supernatants of transfected 293 cells (protein) APMKEVNVHGQGNLAYPGVRTHGTLESVNGPRAGSRGLTTTSLADTFEHVIEELLDEDQKVRPNEENHKDADLYTSRVMLSSQVPLEPPLLFLLEEYKNYLDAANMSMRVRRHSDPARRGELSVCDSISEWVTAADKKTAVDMSGGTVTVLEKVPVSKGQLKQYFYETKCNPMGYTKEGCRGIDKRHWNSQCRTTQSYVRALTMDSKKRIGWRFIRIDTSCVCTLTIKRGR			comparable in inducing growth cone collapse
